Assays:
5-lipoxygenase = assay: 5-Lipoxygenase inhibitory activity, colorimetric method; assay type: biochemical
Experimental: The new dietary/pharmaceutical supplement compositions are screened for their 5-lipoxygenase inhibitory potential using colorimetric method. The assay mixture contained 50 mM phosphate buffer (pH 6.3), 5-lipoxygenase, various concentrations of test composition (5 μg, 10 μg, 20 μg) in dimethylsulphoxide and linolenic acid in a total volume of 0.5 mL, after 5 min incubation of above reaction mixture 0.5 mL ferric xylenol orange reagent is added and OD is measured after two minutes at 585 nm using spectrophotometer. Controls are run along with test in a similar manner except using vehicle instead of test substance solution. Percent inhibition is calculated by comparing absorbance of the test solution with that of control.

[1] = Protective effect against diet induced obesity in rats; assay type: in vivo, Sprague-Dawley rats; settings: 7 mg/kg oral per day, 8 weeks with high fat diet
Experimental: Selected healthy Sprague-Dawley rats were randomly assigned to control or various treatment groups (n=6). All the animals allocated for protective phase of the study were on dietary intervention by feeding high fat diet ad libitum and the animals allocated to treatment groups were simultaneously given oral administration of 250 mg/kg of composition-1 or 7 mg/kg sibutramine per day in […] of 0.5% CMC, using gastric tube for the entire 8 week study duration. The test animals of the control group were simultaneously given 10 ml/kg of 0.5% CMC. Food and water consumption were recorded daily, body weights were recorded weekly and fasting blood samples were collected before initiation, after 4th week and 8th week (termination) of the study.

| SMILES | % of inhibition (5-Lipoxygenase) (5-lipoxygenase; 5 μg) [%] | % of inhibition (5-Lipoxygenase) (5-lipoxygenase; 10 μg) [%] | reduction in weight gain [1] [%] |
| --- | --- | --- | --- |
| C[C@H](Cc1ccc(O)c(O)c1)[C@@H](C)Cc1ccc(O)c(O)c1 [NDGA, Nordihydroguiaretic acid] | 50.2 | 77.35 |  |
| CC(C)CC(N(C)C)C1(c2ccc(Cl)cc2)CCC1 (stereo not drawn) [sibutramine] |  |  | 28.2 |

From patent US20100227828A1, “NEW SYNERGISTIC PHYTOCHEMICAL COMPOSITION FOR THE TREATMENT OF OBESITY” (LAILA NUTRACEUTICALS, priority 2007, published 2010)
